Results as given in PMC2288786 (BMC Structural Biology, 2008).
Values belong to the substance of their own block, whether it stands above or below them. Where no end group is shown, it is not given here.

Key:
CaM [1] = molecular target: T1, CaM (Rattus norvegicus, UniProt P0DP29); assay: Isothermal titration calorimetry of MBP peptide binding to CaM; parameters: species or system vertebrate
T1 construct: made in house; host or cells: E. coli Rosetta (DE3)
Method: The peptide was dissolved in 50 mM HEPES pH 7.5, 20 mM CaCl2 and stored at -20°C. […] Native MBP protein isolated using the chloroform extraction method from post-mortem human brain was obtained from FermLab (Turku, Finland).
The samples for the experiment were extensively dialysed against 50 mM HEPES pH 7.5, 20 mM CaCl2 and degassed in an ultrasonic water bath. […] The first injection of 2 μl was followed by 19 15-μl injections of the peptide. The experiment was carried out at +25, +30, +35, and +40°C. The dilution heat was measured by titrating the buffer with the 1 mM peptide solution. […] The raw data were fitted by non-linear least squares minimisation with models for both a single site and four binding sites (see Results), using the Origin version 5.0 software (MicroCal).

CaM [2] = molecular target: T1, CaM; assay: Surface plasmon resonance, peptide over immobilised CaM; type: binding, vertebrate
Method: SPR assays were performed with a Biacore 3000 instrument (Biacore AB, Uppsala, Sweden). […] Binding of the peptide was tested in 10 mM HEPES pH 7.5, 150 mM NaCl, 4 mM CaCl2 containing 0.005% P-20 surfactant (Biacore AB), at a flow rate of 30 μl/min. Various concentrations of the peptide (2.5–200 μM) were injected in duplicate over both of the flow cells for 3 min, and a 6-min dissociation phase followed each injection. The surfaces were regenerated with a 20-s injection of 10 mM EDTA and another 10-s injection of 20 mM NaOH at a flow rate of 30 μl/min prior to the next injection cycle. The BIAevaluation software version 3.1 (Biacore AB) was used to analyse the data. […] Furthermore, a sensorgram of the injection of buffer alone was subtracted from the data. The data were analysed using the various interaction models available in the software, including the mass transfer model. The only model giving a reasonable fit to the data was the conformational change model (see Results).
A 20-μM solution of the peptide in the running buffer was injected over the flow cells of the CaM-coated sensor chip at a flow rate of 30 μl/min, using different injection times (1, 3, and 20 min). Each injection was followed by a 15-min dissociation time. The surface was regenerated and the data were treated as above.

CaM [3] = molecular target: T1, CaM; assay: Far-UV circular dichroism, k2d secondary structure deconvolution; type: physicochemical, vertebrate; conditions: k2d deconvolution of CD spectrum, +20°C, 10 mM HEPES pH 7.5, 150 mM NaCl, 4 mM CaCl2; CaM 0.050 mg/ml, peptide 0.030 mg/ml
Method: The spectra were corrected by subtracting the spectrum of a buffer sample (10 mM HEPES pH 7.5, 150 mM NaCl, 4 mM CaCl2). Noise reduction was applied to smooth the data with the Jasco software. The spectra are presented as mean residue ellipticity (θ), calculated by using the molar concentration of peptide or protein and multiplying by the appropriate number of peptide bonds. […] Secondary structure contents of the samples were estimated with the program […] [26].

CaM [4] = molecular target: T1, CaM; assay: Size exclusion chromatography of CaM with and without MBP peptide; type: binding, vertebrate; conditions: Superdex 75, free CaM
CaM [5] = assay: Affinity chromatography of human brain MBP on CaM-sepharose; type: binding
Method: Calcium-dependent affinity chromatography of human MBP on CaM-sepharose (GE Healthcare) was carried out as follows: 200 μg of lyophilized human brain MBP were dissolved in 50 mM HEPES pH 7.5, 150 mM NaCl, 2 mM CaCl2. The same buffer that was used to equilibrate 100 μl of the CaM-sepharose matrix. The sample was mixed with the matrix and washed with 5 ml of the above buffer. Elution was done with 1.4 ml of 50 mM HEPES pH 7.5, 150 mM NaCl, 2 mM EGTA. The fractions were applied on a 18% SDS-PAGE gel. To detect which isoforms were bound to CaM-sepharose, fractions 2 (wash) and 7 (EGTA elution) were purified with Vivapure® C18 Micro spin columns prior to analysis by mass spectrometry. MALDI-ToF mass spectrometry was performed with a Voyager-DE STR Biospectrometry Workstation (Applied Biosystems). 1 μl of the protein sample was spotted on sinapinic acid matrix.

Substance: HKGFKGVDAQGTLSKIFKL [MBP peptide]
Kd (CaM [1]): 25.9 µM
Kd (CaM [1]; 25°C (298.15 K), fit to the specific binding site only (one site, peaks 2–7), 1.0 mM peptide into 0.10 mM CaM, 50 mM HEPES pH 7.5, 20 mM CaCl2): 3.4 µM
Kd (CaM [1]; 30°C (303.15 K), fit to the specific binding site only (one site, peaks 2–7), 1.0 mM peptide into 0.10 mM CaM, 50 mM HEPES pH 7.5, 20 mM CaCl2): 2.3 µM
Kd (CaM [1]; 35°C (308.15 K), fit to the specific binding site only (one site, peaks 2–7), 1.0 mM peptide into 0.10 mM CaM, 50 mM HEPES pH 7.5, 20 mM CaCl2): 1.9 µM
Kd in words (CaM [1]; ITC, different temperatures): low μM range
Kd (CaM [2]): 58 µM

apparent molecular weight in gel filtration (CaM [4]): approximately 30 kDa
Substance: calmodulin [CaM]
Random coil content (CaM [3]): 0.12
α-Helix content (CaM [3]): 0.88
β-Sheet content (CaM [3]): 0

Substance: myelin basic protein (HKGFKGVDAQGTLSKIFKL) [MBP, Native MBP protein isolated using the chloroform extraction method from post-mortem human brain; 17.2- and 18.5-kDa isoforms]
binding to CaM-sepharose in presence of calcium (CaM [5]; 50 mM HEPES pH 7.5, 150 mM NaCl, 2 mM CaCl2): retained in the affinity matrix
release from CaM-sepharose by EGTA (CaM [5]; 50 mM HEPES pH 7.5, 150 mM NaCl, 2 mM EGTA): released
MBP isoforms in EGTA eluate (CaM [5]; MALDI-ToF mass spectrometry): 17.2 and 18.5 kDa, were both present in the EGTA eluate
